Drawing on patent US20230073777A1, “CYCLIC-AMP RESPONSE ELEMENT BINDING PROTEIN (CBP) AND/OR ADENOVIRAL E1A BINDING PROTEIN OF 300 KDA (P300) DEGRADATION COMPOUNDS AND METHODS OF USE” (CULLGEN (SHANGHAI), INC., priority 2019, published 2023), this text covers inhibition and IC50 for eleven compounds.

One assay addresses P300 (Homo sapiens, UniProt Q09472). The assay is described as follows: Immunoblotting of P300 protein levels in LNCaP or 22RV1 cells. Format: cell-based. Details: LNCaP or 22RV1 cells that express CBP/P300 proteins were treated with GNE-781 or the bivalent compounds; endogenous in cells; host or cells: LNCaP (clone FGC) or 22RV1 cells. The following applies: percentage of inhibition of p300 at 10 nM (Table 2); read-out: Degradation (10 nM). In short, it runs like this:
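P300/CBP levels quantified by chemiluminescent immunoblot band densitometry, normalized against tubulin or vinculin loading controls. Lysates came from LNCaP or 22RV1 cells exposed to compounds or DMSO vehicle for indicated times.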
(In general: A western blot detects proteins with antibodies after separation by electrophoresis.)

Another assay deals with LNCaP cells. The assay is described as follows: LNCaP cell viability assay (CellTiter-Glo). Format: cell-based. The settings on record: Homo sapiens, 72 h; LNCaP prostate cancer cell viability inhibition, 3 days, CellTiter-Glo (Table 2). In short, it runs like this:
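Three-day treatment of LNCaP cells (5000 per well) across a 12-point, 3-fold dilution series starting at 10 μM. ATP luminescence (CellTiter-Glo) relative to untreated controls gave dose-response curves fitted nonlinearly for IC50.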

P300, sequence (Q09472 whole entry): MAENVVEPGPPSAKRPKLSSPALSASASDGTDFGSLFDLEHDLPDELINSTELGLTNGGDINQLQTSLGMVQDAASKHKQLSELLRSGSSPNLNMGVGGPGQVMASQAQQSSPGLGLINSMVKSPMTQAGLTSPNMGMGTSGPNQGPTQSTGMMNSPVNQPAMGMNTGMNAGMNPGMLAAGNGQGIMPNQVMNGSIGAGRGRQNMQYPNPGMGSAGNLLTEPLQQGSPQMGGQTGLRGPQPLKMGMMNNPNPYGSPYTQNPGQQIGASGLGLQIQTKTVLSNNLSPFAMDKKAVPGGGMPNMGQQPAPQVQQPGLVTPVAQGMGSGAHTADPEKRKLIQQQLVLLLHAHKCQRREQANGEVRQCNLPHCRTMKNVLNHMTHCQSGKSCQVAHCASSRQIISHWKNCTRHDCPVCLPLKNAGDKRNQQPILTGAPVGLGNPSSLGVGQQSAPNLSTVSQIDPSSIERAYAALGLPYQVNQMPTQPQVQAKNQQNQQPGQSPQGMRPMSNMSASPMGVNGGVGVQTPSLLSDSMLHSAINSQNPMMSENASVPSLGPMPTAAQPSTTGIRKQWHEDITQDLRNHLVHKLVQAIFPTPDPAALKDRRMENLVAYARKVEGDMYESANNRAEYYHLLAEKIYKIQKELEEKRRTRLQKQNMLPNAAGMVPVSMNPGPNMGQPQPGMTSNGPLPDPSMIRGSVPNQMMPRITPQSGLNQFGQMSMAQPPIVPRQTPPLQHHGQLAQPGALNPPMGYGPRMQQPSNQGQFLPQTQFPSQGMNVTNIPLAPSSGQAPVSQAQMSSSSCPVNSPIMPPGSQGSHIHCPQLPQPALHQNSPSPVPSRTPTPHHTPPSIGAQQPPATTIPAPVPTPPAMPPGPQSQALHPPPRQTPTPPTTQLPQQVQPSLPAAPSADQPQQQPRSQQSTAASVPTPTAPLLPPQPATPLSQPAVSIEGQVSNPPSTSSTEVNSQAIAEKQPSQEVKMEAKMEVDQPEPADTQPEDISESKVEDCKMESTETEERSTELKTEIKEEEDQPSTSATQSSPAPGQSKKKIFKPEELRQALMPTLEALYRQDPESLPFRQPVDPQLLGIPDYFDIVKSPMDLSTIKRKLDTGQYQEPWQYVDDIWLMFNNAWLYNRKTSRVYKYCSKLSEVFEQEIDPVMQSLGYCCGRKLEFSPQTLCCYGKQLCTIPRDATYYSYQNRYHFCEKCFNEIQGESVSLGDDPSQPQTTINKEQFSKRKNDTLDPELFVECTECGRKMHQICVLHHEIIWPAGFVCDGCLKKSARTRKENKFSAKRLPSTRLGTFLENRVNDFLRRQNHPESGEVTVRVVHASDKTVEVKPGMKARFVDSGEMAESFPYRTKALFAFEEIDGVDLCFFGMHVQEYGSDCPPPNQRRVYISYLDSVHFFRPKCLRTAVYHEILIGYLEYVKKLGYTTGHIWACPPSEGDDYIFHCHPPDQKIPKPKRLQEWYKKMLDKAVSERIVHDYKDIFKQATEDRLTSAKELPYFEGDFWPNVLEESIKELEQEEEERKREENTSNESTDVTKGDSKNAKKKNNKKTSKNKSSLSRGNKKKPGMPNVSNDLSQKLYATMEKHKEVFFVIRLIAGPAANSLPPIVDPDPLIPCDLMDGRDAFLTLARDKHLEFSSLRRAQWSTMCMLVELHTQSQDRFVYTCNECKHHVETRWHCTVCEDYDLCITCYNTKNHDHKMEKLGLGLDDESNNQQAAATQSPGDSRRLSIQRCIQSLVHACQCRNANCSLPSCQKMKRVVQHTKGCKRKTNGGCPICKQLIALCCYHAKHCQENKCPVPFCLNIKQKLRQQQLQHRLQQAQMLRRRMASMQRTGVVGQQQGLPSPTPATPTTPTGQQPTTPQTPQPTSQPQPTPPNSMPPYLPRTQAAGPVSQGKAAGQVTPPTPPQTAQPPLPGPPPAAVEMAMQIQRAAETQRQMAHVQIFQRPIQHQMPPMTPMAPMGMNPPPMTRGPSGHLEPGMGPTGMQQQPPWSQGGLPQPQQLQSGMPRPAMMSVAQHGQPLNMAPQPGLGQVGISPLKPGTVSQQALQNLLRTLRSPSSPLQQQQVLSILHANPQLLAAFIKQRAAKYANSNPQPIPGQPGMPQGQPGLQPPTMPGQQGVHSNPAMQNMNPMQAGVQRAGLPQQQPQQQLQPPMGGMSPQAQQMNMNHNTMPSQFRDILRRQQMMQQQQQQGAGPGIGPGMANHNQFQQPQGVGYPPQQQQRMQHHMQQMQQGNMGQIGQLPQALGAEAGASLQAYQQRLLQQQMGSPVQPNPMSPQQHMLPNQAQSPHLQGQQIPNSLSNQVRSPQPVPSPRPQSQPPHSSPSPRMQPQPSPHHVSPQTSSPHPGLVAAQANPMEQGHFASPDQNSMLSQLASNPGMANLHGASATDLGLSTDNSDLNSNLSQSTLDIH

Broadly, the IC50 is the midpoint of a concentration-inhibition curve. Read a low IC50 as greater potency. As to `CNC(=O)N1CCc2c(c(N3CCCc4cc(-c5cnn(CC(=O)NCCOCCOCCOCCOCCNc6ccc7c(c6)C(=O)N(C6CCC(=O)NC6=O)C7=O)c5)c(C(F)F)cc43)nn2C2CCOCC2)C1` (stereo not shown) [P-031, 3-(7-(Difluoromethyl)-6-(1-(17-((2-(2,6-dioxopiperidin-3-yl)-1,3-dioxoisoindolin-5-yl)amino)-2-oxo-6,9,12,15-tetraoxa-3-azaheptadecyl)-1H-pyrazol-4-yl)-3,4-dihydroquinolin-1(2H)-yl)-N-methyl-1-(tetrahydro-2H-pyran-4-yl)-1,4,6,7-tetrahydro-5H-pyrazolo[4,3-c]pyridine-5-carboxamide], at P300, the inhibition at 0.01 µM was under 20%. Moreover, in the assay on LNCaP cells, the midpoint of inhibition, the IC50, lay at 0.566 µM.
The matching figures for `CNC(=O)N1CCc2c(c(N3CCCc4cc(-c5cnn(CC(=O)NCCOCCOCCOCCOCCOCCNc6ccc7c(c6)C(=O)N(C6CCC(=O)NC6=O)C7=O)c5)c(C(F)F)cc43)nn2C2CCOCC2)C1` (stereo not shown) [P-032, 3-(7-(Difluoromethyl)-6-(1-(20-((2-(2,6-dioxopiperidin-3-yl)-1,3-dioxoisoindolin-5-yl)amino)-2-oxo-6,9,12,15,18-pentaoxa-3-azaicosyl)-1H-pyrazol-4-yl)-3,4-dihydroquinolin-1(2H)-yl)-N-methyl-1-(tetrahydro-2H-pyran-4-yl)-1,4,6,7-tetrahydro-5H-pyrazolo[4,3-c]pyridine-5-carboxamide]: under 20% and 0.601 µM.
`CNC(=O)N1CCc2c(c(N3CCCc4cc(-c5cnn(C)c5)c(C(F)F)cc43)nn2C2CCN(C(=O)CCCCNc3cccc4c3C(=O)N(C3CCC(=O)NC3=O)C4=O)CC2)C1` (stereo not shown) [P-033, 3-(7-(difluoromethyl)-6-(1-methyl-1H-pyrazol-4-yl)-3,4-dihydroquinolin-1(2H)-yl)-1-(1-(5-((2-(2,6-dioxopiperidin-3-yl)-1,3-dioxoisoindolin-4-yl)amino)pentanoyl)piperidin-4-yl)-N-methyl-1,4,6,7-tetrahydro-5H-pyrazolo[4,3-c]pyridine-5-carboxamide]: the inhibition at 0.01 µM on P300 was over 80%. This compound returned an IC50 with LNCaP cells of 0.0048 µM.
The matching figures for `CNC(=O)N1CCc2c(c(N3CCCc4cc(-c5cnn(C)c5)c(C(F)F)cc43)nn2C2CCN(C(=O)CCCCCCNc3cccc4c3C(=O)N(C3CCC(=O)NC3=O)C4=O)CC2)C1` (stereo not shown) [P-035, 3-(7-(difluoromethyl)-6-(1-methyl-1H-pyrazol-4-yl)-3,4-dihydroquinolin-1(2H)-yl)-1-(1-(7-((2-(2,6-dioxopiperidin-3-yl)-1,3-dioxoisoindolin-4-yl)amino)heptanoyl)piperidin-4-yl)-N-methyl-1,4,6,7-tetrahydro-5H-pyrazolo[4,3-c]pyridine-5-carboxamide]: over 80% and 0.0007 µM.
The like results for `CNC(=O)N1CCc2c(c(N3CCCc4cc(-c5cnn(C)c5)c(C(F)F)cc43)nn2C2CCN(C(=O)CCCCCCCNc3cccc4c3C(=O)N(C3CCC(=O)NC3=O)C4=O)CC2)C1` (stereo not shown) [P-036, 3-(7-(difluoromethyl)-6-(1-methyl-1H-pyrazol-4-yl)-3,4-dihydroquinolin-1(2H)-yl)-1-(1-(8-((2-(2,6-dioxopiperidin-3-yl)-1,3-dioxoisoindolin-4-yl)amino)octanoyl)piperidin-4-yl)-N-methyl-1,4,6,7-tetrahydro-5H-pyrazolo[4,3-c]pyridine-5-carboxamide] were, in that order, over 80% and 0.0008 µM.
The matching figures for `CNC(=O)N1CCc2c(c(N3CCCc4cc(-c5cnn(CC(=O)NCCNc6cccc7c6C(=O)N(C6CCC(=O)NC6=O)C7=O)c5)c(C(F)F)cc43)nn2C2CCOCC2)C1` (stereo not shown) [P-037, 3-(7-(Difluoromethyl)-6-(1-(2-((2-((2-(2,6-dioxopiperidin-3-yl)-1,3-dioxoisoindolin-4-yl)amino)ethyl)amino)-2-oxoethyl)-1H-pyrazol-4-yl)-3,4-dihydroquinolin-1(2H)-yl)-N-methyl-1-(tetrahydro-2H-pyran-4-yl)-1,4,6,7-tetrahydro-5H-pyrazolo[4,3-c]pyridine-5-carboxamide]: under 20% and over 10 µM.
With `CNC(=O)N1CCc2c(c(N3CCCc4cc(-c5cnn(CC(=O)NCCCNc6cccc7c6C(=O)N(C6CCC(=O)NC6=O)C7=O)c5)c(C(F)F)cc43)nn2C2CCOCC2)C1` (stereo not shown) [P-038, 3-(7-(Difluoromethyl)-6-(1-(2-((3-((2-(2,6-dioxopiperidin-3-yl)-1,3-dioxoisoindolin-4-yl)amino)propyl)amino)-2-oxoethyl)-1H-pyrazol-4-yl)-3,4-dihydroquinolin-1(2H)-yl)-N-methyl-1-(tetrahydro-2H-pyran-4-yl)-1,4,6,7-tetrahydro-5H-pyrazolo[4,3-c]pyridine-5-carboxamide], on P300, the inhibition at 0.01 µM was under 20%. In the assay with LNCaP cells, this compound returned an IC50 of 0.385 µM.
For the compound `CNC(=O)N1CCc2c(c(N3CCCc4cc(-c5cnn(CC(=O)NCCCCNc6cccc7c6C(=O)N(C6CCC(=O)NC6=O)C7=O)c5)c(C(F)F)cc43)nn2C2CCOCC2)C1` (stereo not shown) [P-039, 3-(7-(Difluoromethyl)-6-(1-(2-((4-((2-(2,6-dioxopiperidin-3-yl)-1,3-dioxoisoindolin-4-yl)amino)butyl)amino)-2-oxoethyl)-1H-pyrazol-4-yl)-3,4-dihydroquinolin-1(2H)-yl)-N-methyl-1-(tetrahydro-2H-pyran-4-yl)-1,4,6,7-tetrahydro-5H-pyrazolo[4,3-c]pyridine-5-carboxamide], the inhibition at 0.01 µM at P300 is under 20%. This compound also gave a half-maximal inhibitory concentration (IC50) in the assay on LNCaP cells of 0.397 µM.
`CNC(=O)N1CCc2c(c(N3CCCc4cc(-c5cnn(CC(=O)NCCCCCNc6cccc7c6C(=O)N(C6CCC(=O)NC6=O)C7=O)c5)c(C(F)F)cc43)nn2C2CCOCC2)C1` (stereo not shown) [P-040, 3-(7-(Difluoromethyl)-6-(1-(2-((5-((2-(2,6-dioxopiperidin-3-yl)-1,3-dioxoisoindolin-4-yl)amino)pentyl)amino)-2-oxoethyl)-1H-pyrazol-4-yl)-3,4-dihydroquinolin-1(2H)-yl)-N-methyl-1-(tetrahydro-2H-pyran-4-yl)-1,4,6,7-tetrahydro-5H-pyrazolo[4,3-c]pyridine-5-carboxamide]: on P300, the inhibition at 0.01 µM is under 20%. This compound gave an IC50 in the assay with LNCaP cells of 0.0964 µM.
The matching figures for `CNC(=O)N1CCc2c(c(N3CCCc4cc(-c5cnn(CC(=O)NCCCCCCNc6cccc7c6C(=O)N(C6CCC(=O)NC6=O)C7=O)c5)c(C(F)F)cc43)nn2C2CCOCC2)C1` (stereo not shown) [P-041, 3-(7-(difluoromethyl)-6-(1-(2-((6-((2-(2,6-dioxopiperidin-3-yl)-1,3-dioxoisoindolin-4-yl)amino)hexyl)amino)-2-oxoethyl)-1H-pyrazol-4-yl)-3,4-dihydroquinolin-1(2H)-yl)-N-methyl-1-(tetrahydro-2H-pyran-4-yl)-1,4,6,7-tetrahydro-5H-pyrazolo[4,3-c]pyridine-5-carboxamide]: 20 to 50% and 0.0106 µM.
The like results for `CNC(=O)N1CCc2c(c(N3CCCc4cc(-c5cnn(CC(=O)NCCCCCCCNc6cccc7c6C(=O)N(C6CCC(=O)NC6=O)C7=O)c5)c(C(F)F)cc43)nn2C2CCOCC2)C1` (stereo not shown) [P-042] were, in that order, under 20% and 0.039 µM.
